# In US12077503B2, “Substituted cyclic amides and their use as herbicides” (FMC CORPORATION, priority 2015, dated 2024):
# Key:
# Assay in all cases: Test C preemergence
# Type in all cases: in vivo
# [1] = system: wheat (winter wheat, Triticum aestivum); conditions: for Plant response rating, Wheat: scale 0 to 100, 0 no effect, 100 complete control
# Summary of the method: (§1)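 Assessment: visual, 13–15 d after treatment, 0 (no effect) to 100 (complete control) relative to controls. Treatment: preemergence to seeds in loam-sand soil, or postemergence to 1- to 4-leaf plants in peat-based medium. Formulation: non-phytotoxic solvent mixture with surfactant.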
# [2] = system: nutsedge, yellow (yellow nutsedge, Cyperus esculentus); conditions: for Plant response rating, Nutsedge, Yellow: scale 0 to 100, 0 no effect, 100 complete control
# Summary of the method: as §1
# [3] = system: morningglory (Ipomoea coccinea); conditions: for Plant response rating, Morningglory: scale 0 to 100, 0 no effect, 100 complete control
# Summary of the method: as §1
# [4] = system: corn (Zea mays); conditions: for Plant response rating, Corn: scale 0 to 100, 0 no effect, 100 complete control
# Summary of the method: as §1
# [5] = system: barnyardgrass (Echinochloa crus-galli); conditions: for Plant response rating, Barnyardgrass: scale 0 to 100, 0 no effect, 100 complete control
# Summary of the method: as §1
# [6] = system: blackgrass (Alopecurus myosuroides); conditions: for Plant response rating, Blackgrass: scale 0 to 100, 0 no effect, 100 complete control
# Summary of the method: as §1
# [7] = system: soybean (Glycine max); conditions: scale 0 to 100, 0 no effect, 100 complete control
# Summary of the method: as §1
# [8] = system: Galium (catchweed bedstraw, Galium aparine); conditions: for Plant response rating, Galium: scale 0 to 100, 0 no effect, 100 complete control
# Summary of the method: as §1
# [9] = system: johnsongrass (Sorghum halepense); conditions: for Plant response rating, Johnsongrass: scale 0 to 100, 0 no effect, 100 complete control
# Summary of the method: as §1
# [10] = system: waterhemp (common waterhemp, Amaranthus rudis); conditions: for Plant response rating, Waterhemp: scale 0 to 100, 0 no effect, 100 complete control
# Summary of the method: as §1
# [11] = system: pigweed (Amaranthus retroflexus); conditions: for Plant response rating, Pigweed: scale 0 to 100, 0 no effect, 100 complete control
# Summary of the method: as §1
# [12] = system: ragweed (common ragweed, Ambrosia elatior); conditions: for Plant response rating, Ragweed: scale 0 to 100, 0 no effect, 100 complete control
# Summary of the method: as §1
# [13] = system: crabgrass, large (large crabgrass, Digitaria sanguinalis); conditions: for Plant response rating, Crabgrass, Large: scale 0 to 100, 0 no effect, 100 complete control
# Summary of the method: as §1
# [14] = system: velvetleaf (Abutilon theophrasti); conditions: for Plant response rating, Velvetleaf: scale 0 to 100, 0 no effect, 100 complete control
# Summary of the method: as §1
# [15] = system: oilseed rape (Brassica napus); conditions: for Plant response rating, Oilseed Rape: scale 0 to 100, 0 no effect, 100 complete control
# Summary of the method: as §1
# [16] = system: ryegrass, Italian (Italian ryegrass, Lolium multiflorum); conditions: for Plant response rating, Ryegrass, Italian: scale 0 to 100, 0 no effect, 100 complete control
# Summary of the method: as §1
# [17] = system: foxtail, giant (giant foxtail, Setaria faberii); conditions: for Plant response rating, Foxtail, Giant: scale 0 to 100, 0 no effect, 100 complete control
# Summary of the method: as §1
# [18] = 31 g ai/ha, 0 is no effect, 100 is complete control
smiles,measurement,setting,value
CN1CC(c2ccc(C(F)(F)F)cc2)C(C(=S)Nc2ccccc2F)C1=O (stereo not shown) [Compound 450],"Plant response rating, Wheat",[1]; 62 g ai/ha,30
same,"Plant response rating, Wheat",[1]; 125 g ai/ha,40
same,"Plant response rating, Wheat",[1]; 250 g ai/ha,60
same,"Plant response rating, Nutsedge, Yellow",[2]; 31 g ai/ha,0
same,"Plant response rating, Nutsedge, Yellow",[2]; 62 g ai/ha,0
same,"Plant response rating, Nutsedge, Yellow",[2]; 125 g ai/ha,0
same,"Plant response rating, Nutsedge, Yellow",[2]; 250 g ai/ha,0
same,"Plant response rating, Morningglory",[3]; 31 g ai/ha,0
same,"Plant response rating, Morningglory",[3]; 62 g ai/ha,0
same,"Plant response rating, Morningglory",[3]; 125 g ai/ha,20
same,"Plant response rating, Morningglory",[3]; 250 g ai/ha,10
same,"Plant response rating, Corn",[4]; 31 g ai/ha,5
same,"Plant response rating, Corn",[4]; 62 g ai/ha,5
same,"Plant response rating, Corn",[4]; 125 g ai/ha,20
same,"Plant response rating, Corn",[4]; 250 g ai/ha,65
same,"Plant response rating, Barnyardgrass",[5]; 31 g ai/ha,90
same,"Plant response rating, Barnyardgrass",[5]; 62 g ai/ha,90
same,"Plant response rating, Barnyardgrass",[5]; 125 g ai/ha,90
same,"Plant response rating, Barnyardgrass",[5]; 250 g ai/ha,95
same,"Plant response rating, Blackgrass",[6]; 31 g ai/ha,0
same,"Plant response rating, Blackgrass",[6]; 62 g ai/ha,0
same,"Plant response rating, Blackgrass",[6]; 125 g ai/ha,45
same,"Plant response rating, Blackgrass",[6]; 250 g ai/ha,60
same,"Plant response rating, Soybean",[7]; 62 g ai/ha,5
same,"Plant response rating, Soybean",[7]; 125 g ai/ha,0
same,"Plant response rating, Soybean",[7]; 250 g ai/ha,0
same,"Plant response rating, Galium",[8]; 31 g ai/ha,50
same,"Plant response rating, Galium",[8]; 62 g ai/ha,90
same,"Plant response rating, Galium",[8]; 125 g ai/ha,90
same,"Plant response rating, Galium",[8]; 250 g ai/ha,95
same,"Plant response rating, Johnsongrass",[9]; 31 g ai/ha,0
same,"Plant response rating, Johnsongrass",[9]; 62 g ai/ha,0
same,"Plant response rating, Johnsongrass",[9]; 125 g ai/ha,20
same,"Plant response rating, Johnsongrass",[9]; 250 g ai/ha,50
same,"Plant response rating, Waterhemp",[10]; 62 g ai/ha,60
same,"Plant response rating, Waterhemp",[10]; 125 g ai/ha,75
same,"Plant response rating, Waterhemp",[10]; 250 g ai/ha,85
same,"Plant response rating, Pigweed",[11]; 31 g ai/ha,55
same,"Plant response rating, Pigweed",[11]; 62 g ai/ha,60
same,"Plant response rating, Pigweed",[11]; 125 g ai/ha,80
same,"Plant response rating, Pigweed",[11]; 250 g ai/ha,80
same,"Plant response rating, Ragweed",[12]; 31 g ai/ha,5
same,"Plant response rating, Ragweed",[12]; 62 g ai/ha,10
same,"Plant response rating, Ragweed",[12]; 125 g ai/ha,20
same,"Plant response rating, Ragweed",[12]; 250 g ai/ha,60
same,"Plant response rating, Crabgrass, Large",[13]; 31 g ai/ha,90
same,"Plant response rating, Crabgrass, Large",[13]; 62 g ai/ha,90
same,"Plant response rating, Crabgrass, Large",[13]; 125 g ai/ha,90
same,"Plant response rating, Crabgrass, Large",[13]; 250 g ai/ha,95
same,"Plant response rating, Velvetleaf",[14]; 62 g ai/ha,0
same,"Plant response rating, Velvetleaf",[14]; 125 g ai/ha,10
same,"Plant response rating, Velvetleaf",[14]; 250 g ai/ha,50
same,"Plant response rating, Oilseed Rape",[15]; 31 g ai/ha,30
same,"Plant response rating, Oilseed Rape",[15]; 62 g ai/ha,30
same,"Plant response rating, Oilseed Rape",[15]; 125 g ai/ha,20
same,"Plant response rating, Oilseed Rape",[15]; 250 g ai/ha,60
same,"Plant response rating, Ryegrass, Italian",[16]; 62 g ai/ha,0
same,"Plant response rating, Ryegrass, Italian",[16]; 125 g ai/ha,0
same,"Plant response rating, Ryegrass, Italian",[16]; 250 g ai/ha,30
same,"Plant response rating, Foxtail, Giant",[17]; 31 g ai/ha,90
same,"Plant response rating, Foxtail, Giant",[17]; 62 g ai/ha,90
same,"Plant response rating, Foxtail, Giant",[17]; 125 g ai/ha,90
same,"Plant response rating, Foxtail, Giant",[17]; 250 g ai/ha,95
Cc1cccc(C2CN(C)C(=O)C2C(=O)Nc2cccc(F)c2F)c1 (stereo not shown) [Compound 667],"Plant response rating (scale of 0 to 100), Wheat",[1]; [18],0
same,"Plant response rating, Wheat",[1]; 62 g ai/ha,10
same,"Plant response rating, Wheat",[1]; 125 g ai/ha,55
same,"Plant response rating, Wheat",[1]; 250 g ai/ha,50
same,"Plant response rating (scale of 0 to 100), Nutsedge, Yellow",[2]; [18],0
same,"Plant response rating, Nutsedge, Yellow",[2]; 62 g ai/ha,0
same,"Plant response rating, Nutsedge, Yellow",[2]; 125 g ai/ha,0
same,"Plant response rating, Nutsedge, Yellow",[2]; 250 g ai/ha,25
same,"Plant response rating (scale of 0 to 100), Morningglory",[3]; [18],0
same,"Plant response rating, Morningglory",[3]; 62 g ai/ha,0
same,"Plant response rating, Morningglory",[3]; 125 g ai/ha,0
same,"Plant response rating, Morningglory",[3]; 250 g ai/ha,10
same,"Plant response rating (scale of 0 to 100), Corn",[4]; [18],55
same,"Plant response rating, Corn",[4]; 62 g ai/ha,70
same,"Plant response rating, Corn",[4]; 125 g ai/ha,80
same,"Plant response rating, Corn",[4]; 250 g ai/ha,85
same,"Plant response rating (scale of 0 to 100), Barnyardgrass",[5]; [18],95
same,"Plant response rating, Barnyardgrass",[5]; 62 g ai/ha,95
same,"Plant response rating, Barnyardgrass",[5]; 125 g ai/ha,98
same,"Plant response rating, Barnyardgrass",[5]; 250 g ai/ha,100
same,"Plant response rating (scale of 0 to 100), Blackgrass",[6]; [18],50
same,"Plant response rating, Blackgrass",[6]; 62 g ai/ha,80
same,"Plant response rating, Blackgrass",[6]; 125 g ai/ha,85
same,"Plant response rating, Blackgrass",[6]; 250 g ai/ha,95
same,"Plant response rating, Soybean",[7]; 62 g ai/ha,10
same,"Plant response rating, Soybean",[7]; 125 g ai/ha,0
same,"Plant response rating, Soybean",[7]; 250 g ai/ha,0
same,"Plant response rating (scale of 0 to 100), Galium",[8]; [18],10
same,"Plant response rating, Galium",[8]; 62 g ai/ha,100
same,"Plant response rating, Galium",[8]; 125 g ai/ha,98
same,"Plant response rating, Galium",[8]; 250 g ai/ha,90
same,"Plant response rating (scale of 0 to 100), Johnsongrass",[9]; [18],70
same,"Plant response rating, Johnsongrass",[9]; 62 g ai/ha,80
same,"Plant response rating, Johnsongrass",[9]; 125 g ai/ha,85
same,"Plant response rating, Johnsongrass",[9]; 250 g ai/ha,90
same,"Plant response rating (scale of 0 to 100), Waterhemp",[10]; [18],0
same,"Plant response rating, Waterhemp",[10]; 62 g ai/ha,10
same,"Plant response rating, Waterhemp",[10]; 125 g ai/ha,60
same,"Plant response rating, Waterhemp",[10]; 250 g ai/ha,75
same,"Plant response rating (scale of 0 to 100), Pigweed",[11]; [18],40
same,"Plant response rating, Pigweed",[11]; 62 g ai/ha,50
same,"Plant response rating, Pigweed",[11]; 125 g ai/ha,50
same,"Plant response rating, Pigweed",[11]; 250 g ai/ha,70
same,"Plant response rating (scale of 0 to 100), Ragweed",[12]; [18],25
same,"Plant response rating, Ragweed",[12]; 62 g ai/ha,100
same,"Plant response rating, Ragweed",[12]; 125 g ai/ha,70
same,"Plant response rating, Ragweed",[12]; 250 g ai/ha,80
same,"Plant response rating (scale of 0 to 100), Crabgrass, Large",[13]; [18],95
same,"Plant response rating, Crabgrass, Large",[13]; 62 g ai/ha,95
same,"Plant response rating, Crabgrass, Large",[13]; 125 g ai/ha,98
same,"Plant response rating, Crabgrass, Large",[13]; 250 g ai/ha,98
same,"Plant response rating (scale of 0 to 100), Velvetleaf",[14]; [18],5
same,"Plant response rating, Velvetleaf",[14]; 62 g ai/ha,30
same,"Plant response rating, Velvetleaf",[14]; 125 g ai/ha,50
same,"Plant response rating, Velvetleaf",[14]; 250 g ai/ha,40
same,"Plant response rating (scale of 0 to 100), Oilseed Rape",[15]; [18],35
same,"Plant response rating, Oilseed Rape",[15]; 62 g ai/ha,85
same,"Plant response rating, Oilseed Rape",[15]; 125 g ai/ha,85
same,"Plant response rating, Oilseed Rape",[15]; 250 g ai/ha,90
same,"Plant response rating (scale of 0 to 100), Ryegrass, Italian",[16]; [18],60
same,"Plant response rating, Ryegrass, Italian",[16]; 62 g ai/ha,70
same,"Plant response rating, Ryegrass, Italian",[16]; 125 g ai/ha,95
same,"Plant response rating, Ryegrass, Italian",[16]; 250 g ai/ha,98
same,"Plant response rating (scale of 0 to 100), Foxtail, Giant",[17]; [18],95
same,"Plant response rating, Foxtail, Giant",[17]; 62 g ai/ha,98
same,"Plant response rating, Foxtail, Giant",[17]; 125 g ai/ha,98
same,"Plant response rating, Foxtail, Giant",[17]; 250 g ai/ha,100
